According to publication PMC11401813, “Grewiifopenes A–K, bioactive clerodane diterpenoids from Casearia grewiifolia Vent” (Natural Products and Bioprospecting, 2024):
Converted amounts (≈) assume the structure as drawn. Like-named read-outs stand apart in the source and are kept apart here.

Experiments:
[1] = system: Staphylococcus epidermidis (ATCC 12228); experiment: Antibacterial broth microdilution (MIC/MBC), S. epidermidis; assay type: cell-based; conditions: ATCC12228
Method: (§1) In addition, the isolates were also evaluated for their antibacterial activity towards three strains including Bacillus cereus (ATCC 11778), Staphylococcus aureus (ATCC 6538) and Staphylococcus epidermidis (ATCC 12228) using penicillin G and gentamicin as the antibiotic controls (Table 5). […] Finally, the inhibitory activity of aromatase by using a CYP19 screening kit was investigated. The aromatase (also called estrogen synthase) is responsible for converting the non-aromatic ring A of androgens to estrogens, which are related to the proliferation of breast cancer cells.
(§2) The tested strains, Staphylococcus aureus (S. aureus) ATCC6538, Staphylococcus epidermidis (S. epidermidis) ATCC12228, and Bacillus cereus (B. cereus) ATCC11778 were obtained from the American Type Culture Collection (ATCC).
(§3) All tested species were grown on Mueller Hinton Agar (MHA) and incubated at 37 °C for 18–24 h. The bacterial colonies suspension in sterile normal saline was diluted until they reached a 1 × 10^6 CFC/mL concentration, which was then compared to the McFarland scale. This step provided a standard bacterial suspension (1 × 10^6 CFU/mL), which was used for the following assays.
(§4) The broth microdilution technique was used for the MIC and MBC determination, which was expressed according to Clinical and Laboratory Standards Institute (CLSI) standard M07 guideline. The compounds were prepared as a stock solution by dissolving in dimethyl sulfoxide (DMSO) with the concentration ranging from 0.195 to 200 µg/mL. DMSO and penicillin G or gentamicin were used as normal and standard drug control. […] Three replicates were performed for each experiment.

[2] = system: HepG2 (hepatocellular carcinoma); experiment: Cytotoxicity, MTT assay, HepG2; assay type: cell-based, human; conditions: MTT, mean ± s.d. (n = 3), read-out: IC50, HepG2
Method: (§5) The in vitro cytotoxicity assay toward a panel of human cancer cell lines of several clerodane diterpenoids has been well investigated. Thus, the isolates in adequate amounts were tested against MOLT-3 (acute lymphoblastic leukemia), HuCCA-1 (cholangiocarcinoma), HepG2 (hepatocellular carcinoma), A549 (lung adenocarcinoma), HeLa (cervical carcinoma), and MDA-MB-231 (triple negative breast cancer) cancer cell lines using the MTT and XTT methods. Doxorubicin and etoposide were used as positive controls.
(§6) The MTT (3-(4,5-dimethylthiazol-2-yl)-2,5-diphenyltetrazolium bromide) assay was employed for the cytotoxic evaluation against five human cancer cell lines, including HepG2, A549, MDA-MB-231, HeLa, and HuCCA-1, while the XTT (2,3-bis-(2-methoxy-4-nitro-5-sulphenyl)-(2H)-tetrazolium-5-carboxanilide) method was used for MOLT-3 cancer cell.

[3] = system: HuCCA-1 (cholangiocarcinoma); experiment: Cytotoxicity, MTT assay, HuCCA-1; assay type: cell-based, human; conditions: MTT, mean ± s.d. (n = 3), read-out: IC50, HuCCA-1
Method: as §5, §6

[4] = system: MDA-MB-231 (triple negative breast cancer); experiment: Cytotoxicity, MTT assay, MDA-MB-231; assay type: cell-based, human; conditions: MTT, mean ± s.d. (n = 3), read-out: IC50, MDA-MB-231
Method: as §5, §6

[5] = system: Bacillus cereus (ATCC 11778); experiment: Antibacterial broth microdilution (MIC/MBC), B. cereus; assay type: cell-based; conditions: Bacillus cereus, ATCC11778
Method: as §1, §2, §3, §4

[6] = system: Staphylococcus aureus (ATCC 6538); experiment: Antibacterial broth microdilution (MIC/MBC), S. aureus; assay type: cell-based; conditions: ATCC6538
Method: as §1, §2, §3, §4

[7] = system: HeLa (cervical carcinoma); experiment: Cytotoxicity, MTT assay, HeLa; assay type: cell-based, human; conditions: HeLa cell line, MTT, mean ± s.d. (n = 3); for IC50: read-out: IC50, HeLa
Method: as §5, §6

[8] = system: MOLT-3 (acute lymphoblastic leukemia); experiment: Cytotoxicity, XTT method, MOLT-3; assay type: cell-based; conditions: Homo sapiens; MOLT-3 cell line; XTT; mean ± s.d. (n = 3); read-out: IC50, MOLT-3
Method: as §5, §6

[9] = system: A549 (lung adenocarcinoma); experiment: Cytotoxicity, MTT assay, A549; assay type: cell-based, human; conditions: mean ± s.d. (n = 3)
Method: as §5, §6

aromatase (CYP19) = target: T1, aromatase (CYP19) (Homo sapiens, UniProt P11511); experiment: Aromatase (CYP19) inhibition assay; assay type: biochemical
T1 construct: purchased
T1 sequence (P11511 1-503): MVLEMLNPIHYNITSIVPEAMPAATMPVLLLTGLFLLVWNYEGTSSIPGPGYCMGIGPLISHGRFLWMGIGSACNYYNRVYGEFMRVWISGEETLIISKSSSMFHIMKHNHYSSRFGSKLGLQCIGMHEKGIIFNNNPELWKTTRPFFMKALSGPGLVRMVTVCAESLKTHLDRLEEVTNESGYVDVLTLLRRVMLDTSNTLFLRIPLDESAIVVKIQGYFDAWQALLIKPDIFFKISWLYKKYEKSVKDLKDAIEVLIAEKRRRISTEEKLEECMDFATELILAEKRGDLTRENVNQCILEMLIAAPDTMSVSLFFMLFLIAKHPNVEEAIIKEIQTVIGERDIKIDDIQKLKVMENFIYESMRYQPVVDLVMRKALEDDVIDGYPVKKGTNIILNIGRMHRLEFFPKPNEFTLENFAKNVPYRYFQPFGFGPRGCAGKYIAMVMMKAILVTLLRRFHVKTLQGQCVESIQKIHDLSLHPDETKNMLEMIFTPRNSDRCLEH
Method: as §1
The aromatase assay used a method previously designed by Stresser and co-workers.

[10] = Homo sapiens, HepG2, HepG2 cell line
[11] = Homo sapiens, HuCC-A1, HuCCA-1 cell line
[12] = Homo sapiens, MDA-MB-231, MDA-MB-231 cell line
[13] = Homo sapiens, A549, A549 cell line

| SMILES | MBC [1] [µg/mL] | MIC [1] [µg/mL] | IC50 [2, 10] [µM] | IC50 [3, 11] [µM] | IC50 [4, 12] [µM] | MBC [5] [µg/mL] | MIC [5] [µg/mL] | MBC [6] [µg/mL] | MIC [6] [µg/mL] | IC50 ([7]; Homo sapiens, HeLa) [µM] | IC50 [8] [µM] | IC50 [9, 13] [µM] | inhibition at 12.5 µM (aromatase (CYP19); at a concentration of 12.5 µM) [%] | Aromatase inhibitory activity (in words) (aromatase (CYP19); at the concentration up to 12.15 µM) | IC50 ([3]; HuCCA-1 cell line) [µM] | IC50 [7] [µM] | IC50 ([2]; HepG2 cell line) [µM] | IC50 ([4]; MDA-MB-231 cell line) [µM] | IC50 ([9]; A549 cell line) [µM] | IC50, HeLa [7] |
| --- | --- | --- | --- | --- | --- | --- | --- | --- | --- | --- | --- | --- | --- | --- | --- | --- | --- | --- | --- | --- |
| C=CC(C)=CCC1(C)C(C)C(OC(C)=O)C(OC(C)=O)C23C(=CC(OC(=O)CC(C)C)CC12)C(OC(C)=O)OC3OC(C)=O (stereo not drawn) [Compound 15, Grewiifopene H] | > 200 | > 200 | 38.5 ± 2.8 | 6.6 ± 0.6 | 9.1 ± 0.3 | > 200 | > 200 | > 200 | > 200 | 8.8 ± 0.6 | 3.1 ± 0.4 | 9.2 ± 1.2 | – | – | – | – | – | – | – | – |
| C=CC(=C)CC[C@]1(C)[C@H](C)C[C@H](OC)[C@@]23C(=C[C@H](OC(=O)[C@@H](C)CC)C[C@@H]12)[C@@H](OC(C)=O)O[C@H]3OC(C)=O [Compound 5, corymbulosin N] | – | – | 10 ± 0.5 | 5.3 ± 0.1 | 8.7 ± 0.2 | – | – | – | – | 5.6 ± 0.3 | 3.4 ± 0.4 | 5 ± 0.9 | 18 | did not show activity | – | – | – | – | – | – |
| COc1cccc2c1C(=O)c1c(O)c3c(c(O)c1C2=O)C[C@@](O)(C(=O)CO)C[C@@H]3O[C@H]1C[C@H](N)[C@H](O)[C@H](C)O1 [Doxorubicin, reference compound] | – | – | 0.52 ± 0.1 | 0.83 ± 0.07 | 2.09 ± 0.1 | – | – | – | – | 0.32 ± 0.01 | 0.01 ± 0.002 | 0.38 ± 0.02 | – | – | – | – | – | – | – | – |
| C=CC(=C)CC[C@]1(C)[C@H](C)[C@@H](OC(=O)/C=C/c2ccc(O)cc2)[C@H](O)[C@@]23C(=C[C@H](OC(=O)CC(C)C)C[C@@H]12)[C@H](OC(C)=O)O[C@H]3OC(C)=O [Compound 14, Grewiifopene G] | – | – | 7.3 ± 0.6 | 1.8 ± 0.2 | 2 ± 0.1 | – | – | – | – | 2.4 ± 0.2 | 1.3 ± 0.5 | 2.6 ± 0.1 | – | – | – | – | – | – | – | – |
| C=CC(C)=CCC1(C)C(C)C(OC(=O)C=Cc2ccc(O)cc2)C(O)C23C(=CC(OC(=O)CC(C)C)CC12)C(OC(C)=O)OC3OC(C)=O (stereo not drawn) [Compound 17, Grewiifopene J] | – | – | 7.1 ± 0.2 | – | 2 ± 0.1 | – | – | – | – | – | 1 ± 0.1 | 2.4 ± 0.2 | – | – | 0.4 ± 0.03 | 2.8 ± 0.03 | – | – | – | – |
| CNC(C)C1CCC(N)C(OC2C(N)CC(N)C(OC3OCC(C)(O)C(NC)C3O)C2O)O1 (stereo not drawn) [Gentamicin, reference compound] | 0.024 (≈ 0.0503 µM) | 0.024 (≈ 0.0503 µM) | – | – | – | 0.048 (≈ 0.101 µM) | 0.048 (≈ 0.101 µM) | 0.024 (≈ 0.0503 µM) | 0.024 (≈ 0.0503 µM) | – | – | – | – | – | – | – | – | – | – | – |
| C=CC(=C)CC[C@]1(C)[C@H](C)[C@@H](OC(C)=O)[C@H](OC)[C@@]23C(=C[C@H](OC(=O)CC(C)C)C[C@@H]12)[C@@H](OC(C)=O)O[C@H]3OC(C)=O [Compound 2, Grewiifopene B] | > 200 | > 200 | 37.1 ± 4.1 | 8.7 ± 1.1 | 9.3 ± 0.4 | > 200 | 100 (≈ 169 µM) | > 200 | > 200 | 8.8 ± 0.9 | 2.7 ± 0.4 | 7.8 ± 0.5 | – | – | – | – | – | – | – | – |
| COc1cc([C@@H]2c3cc4c(cc3[C@@H](O[C@@H]3O[C@@H]5CO[C@@H](C)O[C@H]5[C@H](O)[C@H]3O)[C@H]3COC(=O)[C@H]23)OCO4)cc(OC)c1O [Etoposide, reference compound] | – | – | 33.5 ± 2.55 | – | – | – | – | – | – | – | 0.022 ± 0.004 | – | – | – | – | – | – | – | – | – |
| C=CC(C)=CCC1(C)C(C)C(OC(=O)C=Cc2ccc(O)cc2)C(O)C23C(=CC(OC(=O)CC(C)C)CC12)C(OC(C)=O)OC3OC(C)=O (stereo not drawn) [Compound 18, Grewiifopene K] | – | – | – | – | – | – | – | – | – | – | – | – | – | – | 1.6 ± 0.2 | 6.1 ± 0.3 | 8.9 ± 1.2 | 2.5 ± 0.1 | 2.2 ± 0.2 | – |
| C=CC(=C)CC[C@]1(C)[C@H](C)C[C@H](OC)[C@@]23C(=C[C@H](OC(=O)CC(C)C)C[C@@H]12)[C@@H](OC)O[C@H]3OC(C)=O [Compound 10, kurzipene A] | > 200 | > 200 | 13 ± 1 | 7.5 ± 0.2 | 10.4 ± 0.2 | 12.5 (≈ 24.8 µM) | 12.5 (≈ 24.8 µM) | > 200 | > 200 | 10.7 ± 0.6 | 5 ± 1.4 | 8.2 ± 0.8 | – | – | – | – | – | – | – | – |
| C=CC(=C)CCC1(C)C(C)C(OC(=O)C=Cc2ccc(O)cc2)C(O)C23C(=CC(OC(=O)CC(C)C)CC12)C(OC)OC3OC(C)=O (stereo not drawn) [Compound 13, Grewiifopene F] | – | – | 44.2 ± 4.4 | 41.4 ± 6.1 | 37 ± 5.1 | – | – | – | – | – | 3.7 ± 1 | 30.6 ± 3.9 | – | – | – | – | – | – | – | I^a (Inactive for cytotoxicity with < 50% inhibition at a concentration of 50 µg/mL) |
| CC1(C)S[C@@H]2[C@H](NC(=O)Cc3ccccc3)C(=O)N2[C@H]1C(=O)O [Penicillin G, reference compound] | 1.56 (≈ 4.67 µM) | 0.195 (≈ 0.583 µM) | – | – | – | 3.12 (≈ 9.35 µM) | 3.12 (≈ 9.35 µM) | 0.003 (≈ 0.00897 µM) | 0.00076 (≈ 0.00227 µM) | – | – | – | – | – | – | – | – | – | – | – |
| C=CC(=C)CC[C@]1(C)[C@H](C)C[C@H](OC)[C@@]23C(=C[C@H](OC(=O)C(C)C)C[C@@H]12)[C@@H](OC(C)=O)O[C@H]3OC(C)=O [Compound 6, corymbulosin K] | – | – | 11.8 ± 1.1 | 5.6 ± 1.2 | 10.2 ± 0.6 | – | – | – | – | 7.3 ± 0.3 | 3.2 ± 0.2 | 5.8 ± 0.8 | – | – | – | – | – | – | – | – |
